Reference: ChEMBL document CHEMBL3137667, “[Drug-induced liver injury; fourteenth updated edition of the bibliographic database of liver injuries and related drugs]” (Gastroenterol Clin Biol, 2004)

Legend:
[1] = human
[2] = human; remark: listed apart in the source
[3] = Highest frequency of moderate liver toxicity observed during clinical trials, expressed as a percentage. [column '% BIOL' in source]; details: human
[4] = human; remark: listed apart in the source
[5] = Times to onset, minimal and maximal, observed in the indexed observations. [column 'DELAI' in source]; details: human
[6] = human, serum
[7] = human; remark: listed apart in the source
[8] = human, serum, 4383 h
[9] = human; remark: listed apart in the source
[10] = human; remark: listed apart in the source
[11] = Highest frequency of acute liver toxicity observed during clinical trials, expressed as a percentage. [column '% AIGUE' in source]; details: human
[12] = Presence of at least one case with successful reintroduction. [column 'REINT' in source]; details: human
[13] = human, serum; remark: listed apart in the source
[14] = human; remark: listed apart in the source
[15] = human; remark: listed apart in the source
[16] = human; remark: listed apart in the source
[17] = human; remark: listed apart in the source
[18] = Proposed mechanism(s) of liver damage. [column 'MEC' in source]; details: human
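Throughout, for Hepatotoxicity (association with vascular disease): count of indexed literature references reporting vascular liver injury in humans, e.g. peliosis hepatitis, hepatic veno-occlusive disease or Budd-Chiari syndrome.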
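Throughout, for Hepatotoxicity (benign tumour): value is a count of indexed literature references citing a benign tumour confirmed by histopathology.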
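Throughout, for Hepatotoxicity (choleostasis): human cholestatic liver injury, shown by histopathology or by peak ALT or AST elevation over alkaline phosphatase ratio below 2, value counts indexed literature reports.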
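Throughout, for Hepatotoxicity (chronic liver disease): chronic liver injury confirmed by histopathology or persistently raised serum aminotransferase activity beyond 6 months, value given as the count of indexed literature references.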
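Throughout, for Hepatotoxicity (cirrhosis): value is a count of indexed literature references reporting cirrhosis confirmed by histopathology.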
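Throughout, for Hepatotoxicity (cytolytic): human cytolytic liver injury, shown by histopathology or by a ratio above 5 of peak ALT or AST elevation to alkaline phosphatase elevation, value counts indexed references.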
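Throughout, for Hepatotoxicity (granulomatous hepatitis): value is a count of indexed literature references reporting granulomatous liver disease confirmed by histopathology.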
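Throughout, for Hepatotoxicity (malignant tumour): malignant tumour confirmed by histopathology, value gives the count of indexed literature references reporting it.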
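Throughout, for Hepatotoxicity (severe hepatitis): human clinical data: severe hepatitis, meaning potentially life-threatening liver failure or clinically observed cases, the value counts how many indexed literature references report it.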
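Throughout, for Hepatotoxicity (steatosis): steatosis confirmed by histopathology, value is the count of indexed references.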

Structure (SMILES) | Hepatotoxicity (animal toxicity known) [1] | Hepatotoxicity (cirrhosis) [2] | Hepatotoxicity (moderate) [3] | Hepatotoxicity (steatosis) [4] | Hepatotoxicity (time to onset) [5] | Hepatotoxicity (acute) [6] | Hepatotoxicity (association with vascular disease) [7] | Hepatotoxicity (chronic liver disease) [8] | Hepatotoxicity (benign tumour) [9] | Hepatotoxicity (choleostasis) [10] | Hepatotoxicity (acute) [11] | Hepatotoxicity (successful reintroduction) [12] | Hepatotoxicity (moderate) [13] | Hepatotoxicity (severe hepatitis) [14] | Hepatotoxicity (malignant tumour) [15] | Hepatotoxicity (cytolytic) [16] | Hepatotoxicity (granulomatous hepatitis) [17] | Hepatotoxicity (mechanism) [18] | further results
C[C@H]1O[C@H](O[C@H]2[C@H](O)[C@@H](O)[C@@H](O[C@H]3[C@H](O)[C@@H](O)C(O)O[C@@H]3CO)O[C@@H]2CO)[C@H](O)[C@@H](O)[C@@H]1N[C@H]1C=C(CO)[C@@H](O)[C@H](O)[C@H]1O (some centres undefined) [ACARBOSE] | yes | 0 | 9.9% | 0 | 1 week - 1.5 years | 7 | 0 | 0 | 0 | 0 | 0% | yes | 6 | 0 | 0 | 6 | 0 |  | 
Cc1nnc2n1-c1ccc(Cl)cc1C(c1ccccc1)=NC2 [ALPRAZOLAM] | A | 0 | 8% | 0 | 3 days - 3 weeks | 4 | 1 | 0 | 0 | 1 | 0.4% | yes | 3 | 1 | 0 | 2 | 0 | Dose-dependant | 
C[C@@H]1[C@H](O)[C@@H](C)/C=C/C=C/C=C/C=C/C=C/C=C/C=C/[C@H](O[C@@H]2O[C@H](C)[C@@H](O)[C@H](N)[C@@H]2O)C[C@@H]2O[C@](O)(C[C@@H](O)C[C@@H](O)[C@H](O)CC[C@@H](O)C[C@@H](O)CC(=O)O[C@H]1C)C[C@H](O)[C@H]2C(=O)O [AMPHOTERICIN B] | yes | 0 | 91.7% | 2 | 2 days - 4 months | 15 | 0 | 0 | 0 | 7 | 50% | yes | 28 | 4 | 0 | 6 | 0 | Dose-dependant | 
C[C@H](CCC(=O)O)[C@H]1CC[C@H]2[C@@H]3[C@H](O)C[C@@H]4C[C@H](O)CC[C@]4(C)[C@H]3CC[C@]12C [CHENODIOL] | yes | 0 | 37% | 0 | 3 weeks - 3 months | 5 | 0 | 1 | 0 | 2 | 3% | yes | 22 | 0 | 0 | 3 | 0 | Dose-dependant | 
O=c1ccc2ccccc2o1 [COUMARIN] | yes | 0 | 8.7% | 0 | 5 days - 6 months | 16 | 0 | 0 | 0 | 1 | 4.3% | yes | 8 | 3 | 0 | 11 | 0 | Dose-dependant | 
O=C1c2cccc(O)c2C(=O)c2c(O)cccc21 [DANTHRON] | yes | 0 | 0% | 0 | 2 days - 1 year | 0 | 0 | 1 | 0 | 0 | 0% | yes | 1 | 0 | 0 | 0 | 0 |  | 
COC1=CC(=O)C[C@@H](C)[C@]12Oc1c(Cl)c(OC)cc(OC)c1C2=O [GRISEOFULVIN] | yes | 0 | 50% | 0 | 3 days - 4.5 months | 5 | 0 | 0 | 0 | 2 | 2.8% | yes | 9 | 0 | 0 | 1 | 0 |  | 
COc1ccc2c(c1)c(CC(=O)O)c(C)n2C(=O)c1ccc(Cl)cc1 [INDOMETHACIN] | yes | 0 | 25% | 0 | 3 days - 10 years | 17 | 0 | 0 | 0 | 10 | 1% | yes | 7 | 5 | 0 | 8 | 0 | Allergic, Reactive metabolite | 
Cc1ncc([N+](=O)[O-])n1CCO [METRONIDAZOLE] | yes | 0 |  | 0 | 1 day - 2.3 months | 10 | 0 | 0 | 0 | 2 |  | yes | 4 |  | 0 | 8 | 0 | Dose-dependant | Hepatotoxicity (moderate) ([3]; Liver): 25%; Hepatotoxicity (acute) ([11]; Liver): 0%; Hepatotoxicity (severe hepatitis) ([14]; Liver): 1
N=C(N)c1ccc(OCCCCCOc2ccc(C(=N)N)cc2)cc1 [PENTAMIDINE] | yes | 0 | 43.5% | 1 | 1 week - 3 months | 4 | 0 | 0 | 0 | 0 | 0% | yes | 17 | 2 | 0 | 4 | 0 |  | 
Nc1c2c(nc3ccccc13)CCCC2 [TACRINE] | yes | 0 |  | 1 | 1 week - 1.7 years | 22 | 0 | 0 | 0 |  |  | yes | 38 |  | 0 |  |  |  | Hepatotoxicity (mechanism) ([18]; Liver): Dose-dependant; Hepatotoxicity (moderate) ([3]; Liver): 54%; Hepatotoxicity (choleostasis) ([10]; Liver): 1; Hepatotoxicity (acute) ([11]; Liver): 13.4%; Hepatotoxicity (severe hepatitis) ([14]; Liver): 2; Hepatotoxicity (cytolytic) ([16]; Liver): 19; Hepatotoxicity (granulomatous hepatitis) ([17]; Liver): 4
